Assay results as given in patent US20100099088A1, “RELIABLE DETECTION OF VANCOMYCIN-INTERMEDIATE STAPHYLOCOCCUS AUREUS” (priority 2006, published 2010).
In brackets after ≈: the same amount, converted by molar mass. Like-named read-outs stand apart in the source and are kept apart here.

Assays:
[1] = test system: Staphylococcus aureus strains (MRSA, hVISA/VISA); test: Modified (macromethod) Etest, vancomycin MIC, 2 McFarland inoculum; format: cell-based; conditions: for MIC: Staphylococcus aureus; for Modified Etest category: 2 McF inoculum; as to Modified Etest category: key: S = sensitive; I = intermediate; R = resistant
Protocol: Vancomycin MICs were determined using standard Etest methods. Briefly, colonies from a fresh overnight plate were resuspended in saline to a turbidity equivalent to 0.5 McFarland units. This suspension was swabbed onto Mueller-Hinton agar plates, allowed to dry, and overlaid with a Vancomycin Etest strip (AB Biodisk). Plates were incubated at 37° C. for 48 h and interpreted. […] For some MRSA strains, the macromethod Etest was also applied, using an inoculum equivalent to 2 McFarland units on Brain-Heart Infusion agar plates.

[2] = test system: Staphylococcus aureus strains (MRSA, hVISA/VISA, in vitro-selected); conditions: cited from earlier work; as to CLSI Etest category: key: S = sensitive; I = intermediate; R = resistant
[3] = strain 160013 (NRS283), 0.5 McF inoculum
[4] = strain BR 5 (NRS56), 0.5 McF inoculum
[5] = strain HIP07930 (NRS22), 0.5 McF inoculum
[6] = strain HIP09433 (NRS27), 0.5 McF inoculum
[7] = strain HIP09662 (NRS28), 0.5 McF inoculum
[8] = strain HIP12864 (NRS402), 0.5 McF inoculum
[9] = strain LIM 1 (NRS35), 0.5 McF inoculum
[10] = strain LIM 3 (NRS37), 0.5 McF inoculum
[11] = strain LY-1999 0620-01 (NRS63), 0.5 McF inoculum
[12] = strain LY-1999 0620-02 (NRS64), 0.5 McF inoculum
[13] = strain Mu3 (NRS2), 0.5 McF inoculum
[14] = strain Mu50 (NRS1), 0.5 McF inoculum
[15] = strain NRS118, 0.5 McF inoculum
[16] = strain SA MER (NRS11), 0.5 McF inoculum
[17] = strain SA MER-S20 (NRS14), 0.5 McF inoculum

CN[C@H](CC(C)C)C(=O)N[C@H]1C(=O)N[C@@H](CC(N)=O)C(=O)N[C@H]2C(=O)N[C@H]3C(=O)N[C@H](C(=O)N[C@H](C(=O)O)c4cc(O)cc(O)c4-c4cc3ccc4O)[C@H](O)c3ccc(c(Cl)c3)Oc3cc2cc(c3O[C@@H]2O[C@H](CO)[C@@H](O)[C@H](O)[C@H]2O[C@H]2C[C@](C)(N)[C@H](O)[C@H](C)O2)Oc2ccc(cc2Cl)[C@H]1O [vancomycin]
MIC ([1]; read-out: Modified Etest MIC, strain CMRSA-1 (MRSA), 2 McF inoculum): 8 µg/mL (≈ 5.52 µM)
MIC ([1]; read-out: Modified Etest MIC, strain CMRSA-2 (MRSA), 2 McF inoculum): 3 µg/mL (≈ 2.07 µM)
MIC ([1]; read-out: Modified Etest MIC, strain CMRSA-3 (MRSA), 2 McF inoculum): 3 µg/mL (≈ 2.07 µM)
MIC ([1]; read-out: Modified Etest MIC, strain CMRSA-4 (MRSA), 2 McF inoculum): 2 µg/mL (≈ 1.38 µM)
Modified Etest category ([1]; strain CMRSA-1 (MRSA)): I
Modified Etest category ([1]; strain CMRSA-2 (MRSA)): S
Modified Etest category ([1]; strain CMRSA-3 (MRSA)): S
Modified Etest category ([1]; strain CMRSA-4 (MRSA)): S
CLSI Etest MIC [2, 3]: 4 µg/mL
CLSI Etest category [2, 3]: I
CLSI Etest MIC [2, 4]: 8 µg/mL
CLSI Etest category [2, 4]: I
CLSI Etest MIC [2, 5]: 4 µg/mL
CLSI Etest category [2, 5]: I
CLSI Etest MIC [2, 6]: 4 µg/mL
CLSI Etest category [2, 6]: I
CLSI Etest MIC [2, 7]: 3 µg/mL
CLSI Etest category [2, 7]: S
CLSI Etest MIC [2, 8]: 8 µg/mL
CLSI Etest category [2, 8]: I
CLSI Etest MIC [2, 9]: 2 µg/mL
CLSI Etest category [2, 9]: S
CLSI Etest MIC [2, 10]: 4 µg/mL
CLSI Etest category [2, 10]: I
CLSI Etest MIC [2, 11]: 8 µg/mL
CLSI Etest category [2, 11]: I
CLSI Etest MIC [2, 12]: 1.5 µg/mL
CLSI Etest category [2, 12]: S
CLSI Etest MIC [2, 13]: 4 µg/mL
CLSI Etest category [2, 13]: I
CLSI Etest MIC [2, 14]: 8 µg/mL
CLSI Etest category [2, 14]: I
CLSI Etest MIC [2, 15]: 8 µg/mL
CLSI Etest category [2, 15]: I
CLSI Etest MIC [2, 16]: 2 µg/mL
CLSI Etest category [2, 16]: S
CLSI Etest MIC [2, 17]: 8 µg/mL
CLSI Etest category [2, 17]: I
